Data reported in BindingDB's records for doi:10.1021/jm0003891 (The R. W. Johnson Pharmaceutical Research Institute, 2001).
Several values for one entry are separate records, joined by “and”; a condition that tells them apart may be missing. Equal entries are not always repeated.

Assay: In vitro binding affinity against alpha-2D adrenergic receptor of male Wistar rat

SMILES	Ki
CC(c1cnc[nH]1)c1sccc1Br (centres undefined)	0.96 nM and 0.18 nM
Cc1ccsc1C(C)c1cnc[nH]1 (centres undefined)	0.78 nM and 2.1 nM
Cc1cc(Cc2cnc[nH]2)c(C)s1	0.69 nM
CCc1cc(Cc2cnc[nH]2)c(CC)s1	0.4 nM
c1ccc2sc(Cc3cnc[nH]3)cc2c1	1.1 nM
Cc1csc(Cc2cnc[nH]2)c1C	0.17 nM
c1ccc2c(Cc3cnc[nH]3)csc2c1	0.09 nM
Cc1csc(C)c1Cc1cnc[nH]1	0.1 nM
Cc1cscc1C(C)c1cnc[nH]1 (centres undefined)	0.39 nM
Brc1ccsc1Cc1cnc[nH]1	0.35 nM
Cc1csc(C(C)c2cnc[nH]2)c1C (centres undefined)	0.75 nM
CCC(c1cnc[nH]1)c1cscc1C (centres undefined)	0.97 nM
Clc1cc(Cc2cnc[nH]2)c(Cl)s1	0.088 nM
COC(c1cnc[nH]1)c1sccc1Br (centres undefined)	39 nM
Cc1sccc1Cc1cnc[nH]1	0.44 nM
Cc1sccc1C(C)c1cnc[nH]1 (centres undefined)	2.3 nM
Cc1cscc1Cc1cnc[nH]1	0.47 nM

SMILES	Ki
c1ncc(Cc2ccsc2)[nH]1	3.1 nM
c1ncc(Cc2cc3c(s2)CCCC3)[nH]1	3.7 nM
CCc1cscc1Cc1cnc[nH]1	0.29 nM
Cc1ccsc1Cc1cnc[nH]1	0.45 nM
CC(c1cnc[nH]1)c1cscc1Br (centres undefined)	0.08 nM
Brc1csc(Cc2cnc[nH]2)c1Br	0.07 nM
CCc1sccc1Cc1cnc[nH]1	0.07 nM
c1csc(Cc2cnc[nH]2)c1	8.7 nM
Cc1ccc(Cc2cnc[nH]2)s1	3.6 nM
COC(c1cnc[nH]1)c1cscc1C (centres undefined)	15.9 nM
Cc1ccsc1C1(c2cnc[nH]2)CC1	1000 nM
CCc1cscc1C(C)c1cnc[nH]1 (centres undefined)	0.28 nM
Brc1cscc1Cc1cnc[nH]1	0.23 nM
CC(C)c1cc(Cc2cnc[nH]2)c(C(C)C)s1	12 nM
CCC(c1cnc[nH]1)c1sccc1C (centres undefined)	8.3 nM
CC(c1cnc[nH]1)c1scc(Br)c1Br (centres undefined)	0.43 nM
Cc1cccc([C@H](C)c2cnc[nH]2)c1C [4-[(1S)-1-(2,3-dimethylphenyl)ethyl]-1H-imidazole]	0.015 nM
